In US7618998B2, “Isoflavone derivatives and pharmaceutical compositions comprising the same” (Kaosiung Medical University, priority 2008, dated 2009):

Legend:
[1] = tested on: TRAP activity in RAW 264.7; assay: Tartrate resistant acid phosphatase (TRAP) solution assay in RANKL-treated RAW 264.7 cells; assay type: cell-based; conditions: for inhibition at 10 µM: Mus musculus, RAW264.7, 120 h, 5 days, RANKL 100 ng/mL
Description: 10^3 Raw 264.7 cells were cultured in 96-well plates with 100 ng/mL RANKL (R&D Systems, Minneapolis, Minn.). Cultures were incubated at 37° C. in 5% CO2 for 5 days with the addition of media containing fresh RANKL on day 3. In the TRAP solution assay, enzyme activity was examined by the conversion of α-naphthyl phosphate (4 mmol/liter; Sigma Chemical Co.) to α-naphthol in the presence of a 2 mol/liter L-tartrate solution (Sigma Chemical Co.) in each well. Absorbance was measured at 405 nm using a microplate reader (model 550; Bio-Rad Labs.) (Bandyopadhyay, S. et. el. Biochem. Pharmacol. 2006, 72, 184.).

D1 cells [2] = assay: Cell viability by MTT assay in D1 cells; assay type: cell-based, Balb/c mice; conditions: 10 μM, % of control
Description: (§1) D1-cell, which is a mesenchymal stem cell line cloned from bone marrow cells of Balb/c mice, were purchased from American Type Culture Collection (Rockville, Md.). D1-cells can be induced into osteoblasts, adipocytes and chondrocytes. D1-cells were maintained in DMEM (Gibco BRL, Gaithersburg, Md.) supplemented with 10% FBS, 100 U/ml of penicillin and streptomycin.
(§2) New synthetic compounds were dissolved in DMSO to a final concentration of 10 mM and stored at −20° C. The concentration used was 10 μM and freshly diluted to the medium with a final concentration of DMSO at 0.1%. Control cultures were treated with the same amount of DMSO as used in the corresponding experiments.
(§3) The MTT assay is a calorimetric assay based on the ability of the viable cells to reduce a soluble yellow tetrazolium salt to blue formazan crystals (Carmichael, J. et. el. Cancer Research 1987, 47, 936). After compound treatments, 350 μL of MTT solution ([…] in PBS) were added to each well and incubated for 4 hrs. DMSO was then added for another 0.5 hrs to thoroughly dissolve the dark blue crystals. The absorbance at 570 nm was measured with an ELISA reader. Inhibition of mitochondrial metabolism was shown as relative activity (% of control).

hADSCs [3] = assay: Cell viability by MTT assay in hADSCs; assay type: cell-based, Human; conditions: 10 μM, % of control
Description: (§4) Human adipose tissue derived stem cells (hADSCs), which is derived from adipose tissue, were selected an maintained in a keratinocyte SFM medium (Gibco BRL, Gaithersburg, Md.) supplemented with 5% FBS, 100 U/ml of penicillin and streptomycin.
as §2, §3

D1 cells [4] = assay: Osteogenic differentiation, quantification of mineralization (Alizarin red S) in D1 cells; assay type: cell-based, Balb/c mice; conditions: 10 μM, osteo-induction medium
Description: as §1, §2
(§5) Osteogenic differentiation was induced by culturing cells in an osteo-induction medium (OIM, 10% FBS, 0.1 μM dexamethasone, 10 mM β-glycerophosphate, and L-Ascorbic 2 phosphate 100 μM in low glucose DMEM) for 7-14 days. The extracellular matrix calcification was estimated by using an Alizarin red S stain (Carl, A. et al Anal. Biochem. 2004, 329, 77). The Alizarin red S-stained mineral was quantified by the osteogenesis quantification kit (CHEMICON®).

MC3T3E1 cells = assay: Osteogenic differentiation, quantification of mineralization (Alizarin red S) in MC3T3E1 cells; assay type: cell-based, C57BL/6 mice; conditions: for Mineralization MC3T3E1 cells (12 days): 10 μM, osteo-induction medium
Description: MC3T3E1 cell, which is a preosteoblast cell line derived from calvaria of C57BL/6 mice, were obtained from the American Type Culture Collection (Rockville, Md.). MC3T3E1 cells were maintained in αMEM (Gibco BRL, Gaithersburg, Md.) supplemented with 10% FBS, 100 U/mL of penicillin and streptomycin.
as §2, §5

hADSCs [5] = assay: Osteogenic differentiation, quantification of mineralization (Alizarin red S) in hADSCs; assay type: cell-based, Human; conditions: 10 μM, osteo-induction medium
Description: as §4, §2, §5

| SMILES | melting point | inhibition at 10 µM [1] | Anti-osteoporotic activities compared with compound 5c ([1]; overall statement on Tables 1 and 2 (TRAP inhibition and mineralization)) | Cell viability D1 cells (3 days, MTT) (D1 cells [2]) | Cell viability hADSCs (3 days, MTT) (hADSCs [3]) | Mineralization D1 cells (7 days) (D1 cells [4]) | Mineralization MC3T3E1 cells (12 days) (MC3T3E1 cells) | Mineralization hADSCs (10 days) (hADSCs [5]) | Osteoclast inhibitory activity (inhibition of TRAP activity in RAW 264.7) relative to ipriflavone ([1]; more active than ipriflavone) | Promotion of osteoblast activity (mineralization in MC3T3E1 cells) relative to ipriflavone (MC3T3E1 cells; more active than ipriflavone) |
| --- | --- | --- | --- | --- | --- | --- | --- | --- | --- | --- |
| COc1ccc2c(=O)c(-c3ccc(OCC4CO4)cc3)coc2c1 (stereo not drawn) [Compound 3, 7-Methoxy-3-[4-(oxiran-2-ylmethoxy)phenyl]-4H-chromen-4-one] | 153 to 154 °C | 107% |  |  |  |  |  |  |  |  |
| COc1ccc(-c2coc3cc(OCC4CO4)ccc3c2=O)cc1OC (stereo not drawn) [Compound 4, 3-(3,4-Dimethoxyphenyl)-7-(oxiran-2-ylmethoxy)-4H-chromen-4-one] |  | 119% | comparable anti-osteoporotic activities with that of compound 5c | 76% | 84% | 112% | 977% | 429% |  |  |
| COc1ccc2c(=O)c(-c3ccc(OCC(O)CN4CCOCC4)cc3)coc2c1 (stereo not drawn) [Compound 5a, 3-[4-(2-Hydroxy-3-morpholinopropoxy)phenyl]-7-methoxy-4H-chromen-4-one] | 117 to 118 °C | 0% |  |  |  |  |  |  |  |  |
| COc1ccc2c(=O)c(-c3ccc(OCC(O)CNC4CC4)cc3)coc2c1 (stereo not drawn) [Compound 5b] | 105 to 106 °C | 103% |  |  |  |  |  |  |  |  |
| COc1ccc2c(=O)c(-c3ccc(OCC(O)CNC4CCCCC4)cc3)coc2c1 (stereo not drawn) [Compound 5c, 3-{4-[3-(Cyclohexylamino)-2-hydroxypropoxy]phenyl}-7-methoxy-4H-chromen-4-one] | 125 to 126 °C | 119% |  | 82% | 97% | 78% | 976% |  | 4 fold | 10 fold |
| CC(C)Oc1ccc2c(=O)c(-c3ccccc3)coc2c1 [Ipriflavone, reference compound] |  | 31% |  | 81% | 99% | 100% | 100% | 100% |  |  |

Second part, led by results:

| melting point | SMILES | inhibition at 10 µM [1] | Anti-osteoporotic activities compared with compound 5c ([1]; overall statement on Tables 1 and 2 (TRAP inhibition and mineralization)) | Cell viability D1 cells (3 days, MTT) (D1 cells [2]) | Cell viability hADSCs (3 days, MTT) (hADSCs [3]) | Mineralization D1 cells (7 days) (D1 cells [4]) | Mineralization MC3T3E1 cells (12 days) (MC3T3E1 cells) | Mineralization hADSCs (10 days) (hADSCs [5]) | Osteoclast inhibitory activity (inhibition of TRAP activity in RAW 264.7) relative to ipriflavone ([1]; more active than ipriflavone) | Promotion of osteoblast activity (mineralization in MC3T3E1 cells) relative to ipriflavone (MC3T3E1 cells; more active than ipriflavone) |
| --- | --- | --- | --- | --- | --- | --- | --- | --- | --- | --- |
| 135 to 136 °C | COc1ccc(-c2coc3cc(OCC(O)CN4CCOCC4)ccc3c2=O)cc1OC (stereo not drawn) [Compound 6a, 3-(3,4-Dimethoxyphenyl)-7-(2-hydroxy-3-morpholinopropoxy)-4H-chromen-4-one] | 0% |  |  |  |  |  |  |  |  |
| 84 to 85 °C | COc1ccc(-c2coc3cc(OCC(O)CN4CCNCC4)ccc3c2=O)cc1OC (stereo not drawn) [Compound 6b, 3-(3,4-Dimethoxyphenyl)-7-[2-hydroxy-3-(piperazin-1-yl)propoxy]-4H-chromen-4-one] | 0% |  |  |  |  |  |  |  |  |
| 70 to 71 °C | COc1ccc(-c2coc3cc(OCC(O)CNC4CCCCC4)ccc3c2=O)cc1OC (stereo not drawn) [Compound 6c, 7-[3-(Cyclohexylamino)-2-hydroxypropoxy]-3-(3,4-dimethoxyphenyl)-4H-chromen-4-one] | 120% |  |  |  |  |  |  |  |  |
